“And” between values parts separate entries of the source, which are not always exact repeats. Equal entries are not always repeated.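 Each compound was tested at five concentrations against cells in 96-well plates for 48 hours. Abbreviation: GI50, concentration required for 50% inhibition of growth. TGI is the concentration that stops growth completely.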

The first assay relates to NCI-H226 lung. Nature of the assay: NCI tumour cell line growth inhibition, 48 h.
Regarding `O=C1CC2C=CC(O)C(C1)C2` (configuration not stated), the TGI was > 100 µM.

The molecule `N#CC1=C(N)OC2=C(CSc3ccccc32)C1c1ccc(Br)cc1` (configuration not stated) gave a TGI of 27.9 µM.

On to `CCC(=O)C(c1ccccc1)c1ccccn1` (configuration not stated), for which the TGI was > 100 µM.

Molecule `Cc1ccc(-c2cc(N)n(-c3nc4c([nH]3)c(=O)n(C)c(=O)n4C)n2)cc1` yielded a TGI of 22.8 µM.

Regarding `Cc1sc2nc3n(c(=O)c2c1C)N=CN(c1ccccc1)C3`, the TGI was > 100 µM.

For `CC(C)(C)OC(=O)NC(C)(C)C(=O)NCCC(=O)O`, the TGI was > 100 µM.

Take `CCOC(=O)CCC(NC(=O)c1ccc(OCc2nc3cc(C(F)(F)F)ccc3nc2-c2ccccc2)cc1)C(=O)OCC` (configuration not stated): the TGI was > 100 µM.

Turning to `O=c1c2c3ccccc3[nH]c2c2cccc3c2n1CCC3`, the TGI is > 100 µM.

Turning to `c1ccc([P+](CCNCCNCC[P+](c2ccccc2)(c2ccccc2)c2ccccc2)(c2ccccc2)c2ccccc2)cc1`, the TGI is > 100 µM.

In the case of `COc1ccc(-c2c(C#N)c(N)n(C3OC(CO)C(O)C(O)C3O)c(=S)c2C#N)cc1` (configuration not stated), the TGI was > 100 µM.

With `CCOC(=O)c1sc2nc(SC)nc3c2c1N=CN3c1ccc(Br)cc1`, the TGI was > 100 µM.

As for `CCOC(=O)c1c(NC(=O)c2ccccc2)sc2c1CCCC2`, the TGI is > 100 µM.

Regarding `CCOc1ccc(N/C(=C(/C(Cl)=C(/Cl)NCCN)[N+](=O)[O-])n2nnc3ccccc32)cc1`, the TGI was > 100 µM.

`O=C1CC(C(O)CO)CC(=O)N1` (configuration not stated): the TGI is > 100 µM.

Regarding `c1sc(NC2=NCCO2)c2c1CCCC2`, the TGI was > 100 µM.

On to `COc1cc(COC(=O)N[C@H](C(=O)O)C(C)(C)C)c([N+](=O)[O-])cc1OC`, for which the TGI is > 100 µM.

Another assay concerns NCI-H522 lung. Nature of the assay: NCI tumour cell line growth inhibition, 48 h.
Consider `Cc1ccc2c(c1)nc(N)n[n+]2[O-]`, for which the TGI is > 100 µM.

Molecule `O=C1CC(O)c2c1csc2Br` (configuration not stated) returned a TGI of 30.4 µM.

`CCOC(=O)c1cc(C2(O)CCN(Cc3ccccc3)C2=O)c(-c2cc(C)no2)[nH]1` (configuration not stated) came in with a TGI of 43.3 µM.

`CCOC(=O)c1cc(=C2\CCN(CC(C)CC)C2=S)/c(=C(/O)CC)[nH]1` (configuration not stated): the TGI was 36.4 µM.

`Cc1ccc2c(c1C)CC1(Cc3c(ccc4c3CCC4)C1=O)C2=O` (configuration not stated): the TGI was > 100 µM.

With `OCC1CCCC(n2cnc3c(=S)nc[nH]c32)O1` (configuration not stated), the TGI is > 100 µM.

On to `CCCCc1c(O)nc(Nc2nc3ccccc3[nH]2)[nH]c1=O`, for which the TGI was > 100 µM.

Consider `O=C1CC2C=CC(O)C(C1)C2` (configuration not stated), for which the TGI is > 100 µM.

For `CCC(=O)C(c1ccccc1)c1ccccn1` (configuration not stated), the TGI was > 100 µM.

For `Cc1ccc(-c2cc(N)n(-c3nc4c([nH]3)c(=O)n(C)c(=O)n4C)n2)cc1`, the TGI is > 100 µM.

Regarding `Cc1sc2nc3n(c(=O)c2c1C)N=CN(c1ccccc1)C3`, the TGI is > 100 µM.

Take `CC(C)(C)OC(=O)NC(C)(C)C(=O)NCCC(=O)O`: the TGI was > 100 µM.

`CCOC(=O)CCC(NC(=O)c1ccc(OCc2nc3cc(C(F)(F)F)ccc3nc2-c2ccccc2)cc1)C(=O)OCC` (configuration not stated): the TGI was > 100 µM.

For the molecule `CC12CC(c3ccccc3O1)C(C(=O)Nc1ccc(F)cc1)C(=O)N2` (configuration not stated), the TGI is > 100 µM.

Regarding `COc1ccc(-c2c(C#N)c(N)n(C3OC(CO)C(O)C(O)C3O)c(=S)c2C#N)cc1` (configuration not stated), the GI50 is 34.4 µM and 13.2 µM; the TGI was > 100 µM.

Turning to `CCOC(=O)c1sc2nc(SC)nc3c2c1N=CN3c1ccc(Br)cc1`, the TGI was > 100 µM.

For the molecule `CC(=O)NC1C(OCc2ccccc2)OC(CO)C(O)C1OCC(=O)N[C@@H](C)C(=O)N[C@H](CCC(=O)NCCNCCNc1c2ccccc2nc2cccc([N+](=O)[O-])c12)C(N)=O` (some centres not stated), the TGI is 28.1 µM.

As for `O=C1CC(C(O)CO)CC(=O)N1` (configuration not stated), the TGI is > 100 µM.

On to `c1sc(NC2=NCCO2)c2c1CCCC2`, for which the TGI was > 100 µM.

Consider `CCN(CC)CCn1c2cc3c(cc2c(=O)c2cccnc21)OCCO3`, for which the TGI is > 10 µM.

In another assay the test system is OVCAR-3 ovarian. The experiment in a line: NCI tumour cell line growth inhibition, 48 h.
Regarding `Cc1ccc2c(c1)nc(N)n[n+]2[O-]`, the TGI was > 100 µM.

In the case of `O=C1CC(O)c2c1csc2Br` (configuration not stated), the TGI is 64.4 µM.

For the molecule `CCOC(=O)c1cc(C2(O)CCN(Cc3ccccc3)C2=O)c(-c2cc(C)no2)[nH]1` (configuration not stated), the TGI was > 100 µM.

Take `Cc1ccc2c(c1C)CC1(Cc3c(ccc4c3CCC4)C1=O)C2=O` (configuration not stated): the TGI was > 100 µM.

Regarding `OCC1CCCC(n2cnc3c(=S)nc[nH]c32)O1` (configuration not stated), the TGI is > 100 µM.

Consider `CCCCc1c(O)nc(Nc2nc3ccccc3[nH]2)[nH]c1=O`, for which the TGI was > 100 µM.

On to `O=C1CC2C=CC(O)C(C1)C2` (configuration not stated), for which the TGI was > 100 µM.

Turning to `N#CC1=C(N)OC2=C(CSc3ccccc32)C1c1ccc(Br)cc1` (configuration not stated), the TGI stood at 21.6 µM.

In the case of `CCC(=O)C(c1ccccc1)c1ccccn1` (configuration not stated), the TGI is > 100 µM.

In the case of `Cc1ccc(-c2cc(N)n(-c3nc4c([nH]3)c(=O)n(C)c(=O)n4C)n2)cc1`, the TGI amounted to 18.9 µM.

Regarding `Cc1sc2nc3n(c(=O)c2c1C)N=CN(c1ccccc1)C3`, the TGI is > 100 µM.

In the case of `CC(C)(C)OC(=O)NC(C)(C)C(=O)NCCC(=O)O`, the TGI was > 100 µM.

Regarding `CCOC(=O)CCC(NC(=O)c1ccc(OCc2nc3cc(C(F)(F)F)ccc3nc2-c2ccccc2)cc1)C(=O)OCC` (configuration not stated), the TGI was > 100 µM.

On to `CC12CC(c3ccccc3O1)C(C(=O)Nc1ccc(F)cc1)C(=O)N2` (configuration not stated), for which the TGI is > 100 µM.

On to `O=c1c2c3ccccc3[nH]c2c2cccc3c2n1CCC3`, for which the TGI was > 100 µM.

Turning to `c1ccc([P+](CCNCCNCC[P+](c2ccccc2)(c2ccccc2)c2ccccc2)(c2ccccc2)c2ccccc2)cc1`, the TGI was > 100 µM.

For `COc1ccc(-c2c(C#N)c(N)n(C3OC(CO)C(O)C(O)C3O)c(=S)c2C#N)cc1` (configuration not stated), the TGI was > 100 µM.

`CCOC(=O)c1sc2nc(SC)nc3c2c1N=CN3c1ccc(Br)cc1`: the TGI is > 100 µM.

For `CCOC(=O)c1c(NC(=O)c2ccccc2)sc2c1CCCC2`, the TGI is > 100 µM.

For `CCOc1ccc(N/C(=C(/C(Cl)=C(/Cl)NCCN)[N+](=O)[O-])n2nnc3ccccc32)cc1`, the TGI turned out to be 63.3 µM.

Regarding `CC(=O)NC1C(OCc2ccccc2)OC(CO)C(O)C1OCC(=O)N[C@@H](C)C(=O)N[C@H](CCC(=O)NCCNCCNc1c2ccccc2nc2cccc([N+](=O)[O-])c12)C(N)=O` (some centres not stated), the TGI was > 100 µM.

Regarding `O=C1CC(C(O)CO)CC(=O)N1` (configuration not stated), the TGI was > 100 µM.

As to `c1sc(NC2=NCCO2)c2c1CCCC2`, the TGI was > 100 µM.

As for `COc1cc(COC(=O)N[C@H](C(=O)O)C(C)(C)C)c([N+](=O)[O-])cc1OC`, the TGI was > 100 µM.

With `CCN(CC)CCn1c2cc3c(cc2c(=O)c2cccnc21)OCCO3`, the TGI was > 10 µM.

A further assay deals with SF-268 CNS. The experiment in a line: NCI tumour cell line growth inhibition, 48 h.
Take `Cc1ccc2c(c1)nc(N)n[n+]2[O-]`: the TGI is > 100 µM.

In the case of `O=C1CC(O)c2c1csc2Br` (configuration not stated), the TGI came out at 88.6 µM.

Take `CCOC(=O)c1cc(C2(O)CCN(Cc3ccccc3)C2=O)c(-c2cc(C)no2)[nH]1` (configuration not stated): the TGI was > 100 µM.

Regarding `CCOC(=O)c1cc(=C2\CCN(CC(C)CC)C2=S)/c(=C(/O)CC)[nH]1` (configuration not stated), the TGI is 46.3 µM.

With `Cc1ccc2c(c1C)CC1(Cc3c(ccc4c3CCC4)C1=O)C2=O` (configuration not stated), the TGI is > 100 µM.
